The record followed here is patent US11427553B2, “Dihydrooxadiazinones” (Bayer Aktiengesellschaft, priority 2017, dated 2022).

Where only a bound is given, the exact number is not on record here.

For experiment [1], the system named is HeLa cells. As to the kind of experiment: Assay 1 cell proliferation measurement (CTG, 72 h), HeLa. The format is cell-based, human. To be noted: Homo sapiens, HeLa; Assay 1, 72 h, Cell Titer Glo; read-out: HeLa IC50 [nM] (Cervical cancer). The gist of the method:
(§1)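 Cells were plated, grown overnight at 37 °C, then treated 72 h with a 10-step 2.5-fold dilution series from 100 nM maximum final (0.3% DMSO vehicle). Viability was read by CellTiter-Glo luminescence. IC50 from a 4-parameter fit, normalised to a 0 h plate (maximum inhibition) and DMSO control (minimum inhibition).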
For orientation: ATP-based viability assays read luminescence as a measure of living cells.

In experiment [2] the target is human full length PDE3B (Homo sapiens (Human), UniProt Q13370). As to the kind of experiment: Assay 5 PDE3B enzyme inhibition (3H-cAMP SPA). The format is biochemical. To be noted: Sf9 cell extract. The method, boiled down: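 Compounds in DMSO are mixed with diluted PDE3B extract from Sf9 cells, and reactions start on adding tritiated cAMP. After 60 min at room temperature, yttrium scintillation proximity beads terminate hydrolysis and signal is counted; IC50 values come from sigmoidal dose-response curves.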
Sequence of human full length PDE3B (Q13370 whole entry): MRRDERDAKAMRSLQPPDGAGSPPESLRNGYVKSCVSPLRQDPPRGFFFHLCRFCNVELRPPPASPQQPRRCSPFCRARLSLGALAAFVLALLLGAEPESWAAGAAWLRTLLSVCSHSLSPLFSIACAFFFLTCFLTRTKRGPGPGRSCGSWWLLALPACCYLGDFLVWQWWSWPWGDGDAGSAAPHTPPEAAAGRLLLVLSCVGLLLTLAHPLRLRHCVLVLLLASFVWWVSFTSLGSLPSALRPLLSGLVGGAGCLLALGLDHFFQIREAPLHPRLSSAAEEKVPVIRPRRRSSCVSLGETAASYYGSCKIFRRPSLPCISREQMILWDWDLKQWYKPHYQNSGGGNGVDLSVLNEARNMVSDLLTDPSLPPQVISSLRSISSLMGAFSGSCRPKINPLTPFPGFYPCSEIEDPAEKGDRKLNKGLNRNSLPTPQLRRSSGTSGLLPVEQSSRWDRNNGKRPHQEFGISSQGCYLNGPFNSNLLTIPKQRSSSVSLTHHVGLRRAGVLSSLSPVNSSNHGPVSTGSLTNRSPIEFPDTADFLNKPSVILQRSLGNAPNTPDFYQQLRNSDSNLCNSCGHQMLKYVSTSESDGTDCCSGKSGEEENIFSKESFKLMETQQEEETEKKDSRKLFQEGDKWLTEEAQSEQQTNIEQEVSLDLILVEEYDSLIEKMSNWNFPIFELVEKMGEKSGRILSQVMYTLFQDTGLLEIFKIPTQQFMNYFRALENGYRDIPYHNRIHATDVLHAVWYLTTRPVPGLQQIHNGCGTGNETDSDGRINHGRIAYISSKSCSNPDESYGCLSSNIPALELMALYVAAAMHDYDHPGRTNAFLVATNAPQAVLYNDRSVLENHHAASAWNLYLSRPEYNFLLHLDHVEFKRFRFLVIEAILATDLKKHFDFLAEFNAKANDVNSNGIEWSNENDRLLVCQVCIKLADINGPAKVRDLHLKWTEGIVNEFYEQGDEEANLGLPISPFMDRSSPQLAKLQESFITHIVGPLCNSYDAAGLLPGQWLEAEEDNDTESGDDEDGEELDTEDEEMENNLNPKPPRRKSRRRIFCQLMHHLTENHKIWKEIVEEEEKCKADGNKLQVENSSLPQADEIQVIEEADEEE

Experiment [3] concerns the target human full length PDE3A (Homo sapiens (Human), UniProt Q14432). Briefly: Assay 4 PDE3A enzyme inhibition (3H-cAMP SPA). The format is biochemical. The settings on record: Sf9 cell extract. The gist of the method: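 Hydrolysis of [8-3H]cAMP by Sf9-expressed full-length PDE3A was measured by scintillation proximity, with enzyme diluted to keep kinetics linear and substrate consumption below 70%. Incubation ran 60 min at room temperature at pH 7.5.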

The test system of experiment [4] is SK-MEL-3 cells. Briefly: Assay 1 cell proliferation measurement (CTG, 72 h), SK-MEL-3. The format is cell-based, human. To be noted: Homo sapiens, SK-MEL3; Assay 1, 72 h, Cell Titer Glo; read-out: SK-MEL-3 IC50 [nM] (melanoma). The method, boiled down: as §1

A word on the IC50: it is the midpoint of a concentration-inhibition curve.

Sequence of human full length PDE3A (Q14432 whole entry): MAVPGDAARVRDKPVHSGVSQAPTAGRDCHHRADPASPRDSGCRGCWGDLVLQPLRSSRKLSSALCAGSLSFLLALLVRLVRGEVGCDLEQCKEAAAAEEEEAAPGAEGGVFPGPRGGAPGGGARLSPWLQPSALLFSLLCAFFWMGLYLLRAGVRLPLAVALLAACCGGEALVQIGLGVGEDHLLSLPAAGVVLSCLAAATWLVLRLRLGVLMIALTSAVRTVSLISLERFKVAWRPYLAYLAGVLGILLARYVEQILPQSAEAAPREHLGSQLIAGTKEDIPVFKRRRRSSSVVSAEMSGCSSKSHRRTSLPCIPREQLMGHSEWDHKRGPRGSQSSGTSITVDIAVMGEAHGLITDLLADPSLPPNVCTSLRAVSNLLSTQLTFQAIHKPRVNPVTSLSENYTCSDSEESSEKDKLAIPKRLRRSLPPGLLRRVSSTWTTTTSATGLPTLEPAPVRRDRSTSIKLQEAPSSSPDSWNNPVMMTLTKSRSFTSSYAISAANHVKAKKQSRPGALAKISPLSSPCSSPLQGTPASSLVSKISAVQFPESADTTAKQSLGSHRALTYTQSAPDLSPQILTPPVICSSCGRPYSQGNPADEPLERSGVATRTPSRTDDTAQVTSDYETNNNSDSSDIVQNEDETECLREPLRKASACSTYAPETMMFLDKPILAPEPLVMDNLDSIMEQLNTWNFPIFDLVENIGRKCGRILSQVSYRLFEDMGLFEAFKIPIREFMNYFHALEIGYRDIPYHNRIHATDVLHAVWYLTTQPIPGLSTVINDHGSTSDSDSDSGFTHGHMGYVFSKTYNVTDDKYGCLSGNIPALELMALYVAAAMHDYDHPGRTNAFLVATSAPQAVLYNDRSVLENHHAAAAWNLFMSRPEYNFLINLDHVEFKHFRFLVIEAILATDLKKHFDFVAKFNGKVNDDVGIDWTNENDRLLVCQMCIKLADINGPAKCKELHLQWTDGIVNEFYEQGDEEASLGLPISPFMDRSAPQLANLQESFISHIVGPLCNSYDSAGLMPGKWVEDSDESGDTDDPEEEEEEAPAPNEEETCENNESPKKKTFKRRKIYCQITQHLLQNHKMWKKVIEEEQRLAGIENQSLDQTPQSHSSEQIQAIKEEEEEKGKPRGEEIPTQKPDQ

As to `Nc1cc(-c2ccc(C3=NNC(=O)OC3)cc2C(F)(F)F)c(F)cc1F` [Example 38, 5-[5′-Amino-2′,4′-difluoro-2-(trifluoromethyl)biphenyl-4-yl]-3,6-dihydro-2H-1,3,4-oxadiazin-2-one], the IC50 in experiment [1] was 83 nM; in experiment [2] it was 260 nM; in experiment [3], 210 nM; in experiment [4], more than 100 nM.

Take `Nc1ccc(-c2ccc(C3=NNC(=O)OC3)cc2C(F)(F)F)cc1F` [Example 39, 5-[4′-Amino-3′-fluoro-2-(trifluoromethyl)biphenyl-4-yl]-3,6-dihydro-2H-1,3,4-oxadiazin-2-one]: the IC50 worked out at 4 nM in experiment [1], 75 nM in experiment [2], 72 nM in experiment [3] and 6 nM in experiment [4].

As for `Nc1ccc(-c2ccc(C3=NNC(=O)OC3)cc2C(F)(F)F)cn1` [Example 40, 5-[4-(6-Aminopyridin-3-yl)-3-(trifluoromethyl)phenyl]-3,6-dihydro-2H-1,3,4-oxadiazin-2-one], the IC50 was found to be 5 nM in experiment [1], 39 nM in experiment [2], 42 nM in experiment [3] and 7 nM in experiment [4].

Take `Nc1cc(-c2ccc(C3=NNC(=O)OC3)cc2C(F)(F)F)ccc1Cl` [Example 41, 5-[3′-Amino-4′-chloro-2-(trifluoromethyl)biphenyl-4-yl]-3,6-dihydro-2H-1,3,4-oxadiazin-2-one]: the IC50 in experiment [1] was found to be 10 nM; in experiment [2], 31 nM; in experiment [3] it was 31 nM; in experiment [4], 21 nM.

In the case of `Cc1ccc(-c2ccc(C3=NNC(=O)OC3)cc2C(F)(F)F)cc1N` [Example 42, 5-[3′-Amino-4′-methyl-2-(trifluoromethyl)biphenyl-4-yl]-3,6-dihydro-2H-1,3,4-oxadiazin-2-one], the IC50 in experiment [1] worked out at 55 nM; in experiment [2] it was 250 nM; in experiment [3], 170 nM; in experiment [4], 64 nM.

Take `Nc1cccc(-c2ccc(C3=NNC(=O)OC3)cc2C(F)(F)F)c1F` [Example 43, 5-[3′-Amino-2′-fluoro-2-(trifluoromethyl)biphenyl-4-yl]-3,6-dihydro-2H-1,3,4-oxadiazin-2-one]: the IC50 in experiment [1] stood at 34 nM; in experiment [2], 85 nM; in experiment [3] it was 96 nM; in experiment [4], 48 nM.

`Nc1ccc(-c2ccc(C3=NNC(=O)OC3)cc2C(F)(F)F)c(F)c1` [Example 44, 5-[4′-Amino-2′-fluoro-2-(trifluoromethyl)biphenyl-4-yl]-3,6-dihydro-2H-1,3,4-oxadiazin-2-one]: the IC50 in experiment [1] came to 14 nM; in experiment [2], 200 nM; in experiment [3], 190 nM; in experiment [4], 9 nM.

For the compound `Cn1cc(-c2ccc(C3=NNC(=O)OC3)cc2C(F)(F)F)cn1` [Example 45, 5-[4-(1-Methyl-1H-pyrazol-4-yl)-3-(trifluoromethyl)phenyl]-3,6-dihydro-2H-1,3,4-oxadiazin-2-one], the IC50 in experiment [1] worked out at 3 nM; in experiment [2], 34 nM; in experiment [3], 43 nM; in experiment [4] it was 4 nM.

Take `Cc1n[nH]cc1-c1ccc(C2=NNC(=O)OC2)cc1C(F)(F)F` [Example 46, 5-[4-(3-Methyl-1H-pyrazol-4-yl)-3-(trifluoromethyl)phenyl]-3,6-dihydro-2H-1,3,4-oxadiazin-2-one]: the IC50 was found to be 21 nM in experiment [1], 17 nM in experiment [2], 27 nM in experiment [3] and 34 nM in experiment [4].

As for `O=C1NN=C(c2ccc(-c3ccc4cn[nH]c4c3)c(C(F)(F)F)c2)CO1` [Example 47, 5-[4-(1H-Indazol-6-yl)-3-(trifluoromethyl)phenyl]-3,6-dihydro-2H-1,3,4-oxadiazin-2-one], the IC50 in experiment [1] is 2 nM; in experiment [2], 33 nM; in experiment [3], 53 nM; in experiment [4], 2 nM.

In the case of `Cc1ncc(-c2ccc(C3=NNC(=O)OC3)cc2C(F)(F)F)cc1F` [Example 48, 5-[4-(5-Fluoro-6-methylpyridin-3-yl)-3-(trifluoromethyl)phenyl]-3,6-dihydro-2H-1,3,4-oxadiazin-2-one], the IC50 turned out to be 8 nM in experiment [1], 240 nM in experiment [2], 240 nM in experiment [3] and 16 nM in experiment [4].

As to `O=C1NN=C(c2ccc(-c3cnsc3)c(C(F)(F)F)c2)CO1` [Example 49, 5-[4-(1,2-Thiazol-4-yl)-3-(trifluoromethyl)phenyl]-3,6-dihydro-2H-1,3,4-oxadiazin-2-one], the IC50 in experiment [1] was 6 nM; in experiment [2], 190 nM; in experiment [3], 230 nM; in experiment [4] it was 13 nM.

`Cn1c(C#N)ccc1-c1ccc(C2=NNC(=O)OC2)cc1C(F)(F)F` [Example 50, 1-Methyl-5-[4-(2-oxo-3,6-dihydro-2H-1,3,4-oxadiazin-5-yl)-2-(trifluoromethyl)phenyl]-1H-pyrrole-2-carbonitrile]: the IC50 in experiment [1] came to 81 nM; in experiment [2], 210 nM; in experiment [3], 260 nM; in experiment [4] it was 19800 nM.

As for `O=C1NN=C(c2ccc(-c3ccc(C(F)(F)F)cc3)c(C(F)(F)F)c2)CO1` [Example 51, 5-[2,4′-Bis(trifluoromethyl)biphenyl-4-yl]-3,6-dihydro-2H-1,3,4-oxadiazin-2-one], the IC50 in experiment [1] was 30 nM; in experiment [2], more than 1000 nM; in experiment [3] it was more than 1000 nM; in experiment [4], 49 nM.

In the case of `Cc1nn(C)cc1-c1ccc(C2=NNC(=O)OC2)cc1C(F)(F)F` [Example 52, 5-[4-(1,3-Dimethyl-1H-pyrazol-4-yl)-3-(trifluoromethyl)phenyl]-3,6-dihydro-2H-1,3,4-oxadiazin-2-one], the IC50 in experiment [1] is 48 nM; in experiment [2], 30 nM; in experiment [3], 65 nM; in experiment [4] it was more than 100 nM.

For `COc1nc(C)ccc1-c1ccc(C2=NNC(=O)OC2)cc1C(F)(F)F` [Example 53, 5-[4-(2-Methoxy-6-methylpyridin-3-yl)-3-(trifluoromethyl)phenyl]-3,6-dihydro-2H-1,3,4-oxadiazin-2-one], the IC50 in experiment [1] turned out to be 36 nM; in experiment [2] it was 390 nM; in experiment [3], 580 nM; in experiment [4], 13000 nM.

In the case of `Cc1ncc(-c2ccc(C3=NNC(=O)OC3)cc2C(F)(F)F)s1` [Example 54, 5-[4-(2-Methyl-1,3-thiazol-5-yl)-3-(trifluoromethyl)phenyl]-3,6-dihydro-2H-1,3,4-oxadiazin-2-one], the IC50 is 1 nM in experiment [1], 89 nM in experiment [2], 100 nM in experiment [3] and 3 nM in experiment [4].

In the case of `CNc1ccc(-c2ccc(C3=NNC(=O)OC3)cc2C(F)(F)F)cc1` [Example 55, 5-[4′-(Methylamino)-2-(trifluoromethyl)biphenyl-4-yl]-3,6-dihydro-2H-1,3,4-oxadiazin-2-one], the IC50 in experiment [1] stood at 7 nM; in experiment [2], 250 nM; in experiment [3] it was 280 nM; in experiment [4], 14 nM.

For the compound `Nc1cc(-c2ccc(C3=NNC(=O)OC3)cc2C(F)(F)F)ccc1F` [Example 56, 5-[3′-Amino-4′-fluoro-2-(trifluoromethyl)biphenyl-4-yl]-3,6-dihydro-2H-1,3,4-oxadiazin-2-one], the IC50 in experiment [1] amounted to 5 nM; in experiment [2] it was 80 nM; in experiment [3] it was 180 nM; in experiment [4], 10 nM.

`O=C1NN=C(c2ccc(-c3cc(F)c(F)c(F)c3)c(C(F)(F)F)c2)CO1` [Example 58, 5-[3′,4′,5′-Trifluoro-2-(trifluoromethyl)biphenyl-4-yl]-3,6-dihydro-2H-1,3,4-oxadiazin-2-one]: the IC50 was determined as 40 nM in experiment [1], 570 nM in experiment [2], 310 nM in experiment [3] and 64 nM in experiment [4].

As to `O=C1NN=C(c2ccc(-c3cc(F)ccc3F)c(C(F)(F)F)c2)CO1` [Example 59, 5-[2′,5′-Difluoro-2-(trifluoromethyl)biphenyl-4-yl]-3,6-dihydro-2H-1,3,4-oxadiazin-2-one], the IC50 in experiment [1] came to 18 nM; in experiment [2] it was 250 nM; in experiment [3] it was 150 nM; in experiment [4] it was 38 nM.

On to `Nc1cc(-c2ccc(C3=NNC(=O)OC3)cc2OC(F)(F)F)ccc1F` [Example 60, 5-[3′-Amino-4′-fluoro-2-(trifluoromethoxy)biphenyl-4-yl]-3,6-dihydro-2H-1,3,4-oxadiazin-2-one], for which the IC50 in experiment [1] was found to be 13 nM; in experiment [2], 510 nM; in experiment [3], 270 nM; in experiment [4], 20 nM.

With `O=C1NN=C(c2ccc(-c3ccc(F)c(F)c3)c(C(F)(F)F)c2)CO1` [Example 61, 5-[3′,4′-Difluoro-2-(trifluoromethyl)biphenyl-4-yl]-3,6-dihydro-2H-1,3,4-oxadiazin-2-one], the IC50 was 10 nM in experiment [1], 320 nM in experiment [2], 230 nM in experiment [3] and 16 nM in experiment [4].

With `O=C1NN=C(c2ccc(-c3ccc4cc[nH]c4c3)c(C(F)(F)F)c2)CO1` [Example 62, 5-[4-(1H-Indol-6-yl)-3-(trifluoromethyl)phenyl]-3,6-dihydro-2H-1,3,4-oxadiazin-2-one], the IC50 in experiment [1] turned out to be 6 nM; in experiment [2] it was 180 nM; in experiment [3] it was 85 nM; in experiment [4], 14 nM.
